Several values for one entry are separate records, joined by “and”; a condition that tells them apart may be missing. Equal entries are not always repeated.
T1: TLR9 (Mus musculus, UniProt Q9EQU3)
T1 construct: host or cells: Raw-Blue (NF-kB-SEAP) mouse macrophage reporter cells
T1 sequence (Q9EQU3 26-1032): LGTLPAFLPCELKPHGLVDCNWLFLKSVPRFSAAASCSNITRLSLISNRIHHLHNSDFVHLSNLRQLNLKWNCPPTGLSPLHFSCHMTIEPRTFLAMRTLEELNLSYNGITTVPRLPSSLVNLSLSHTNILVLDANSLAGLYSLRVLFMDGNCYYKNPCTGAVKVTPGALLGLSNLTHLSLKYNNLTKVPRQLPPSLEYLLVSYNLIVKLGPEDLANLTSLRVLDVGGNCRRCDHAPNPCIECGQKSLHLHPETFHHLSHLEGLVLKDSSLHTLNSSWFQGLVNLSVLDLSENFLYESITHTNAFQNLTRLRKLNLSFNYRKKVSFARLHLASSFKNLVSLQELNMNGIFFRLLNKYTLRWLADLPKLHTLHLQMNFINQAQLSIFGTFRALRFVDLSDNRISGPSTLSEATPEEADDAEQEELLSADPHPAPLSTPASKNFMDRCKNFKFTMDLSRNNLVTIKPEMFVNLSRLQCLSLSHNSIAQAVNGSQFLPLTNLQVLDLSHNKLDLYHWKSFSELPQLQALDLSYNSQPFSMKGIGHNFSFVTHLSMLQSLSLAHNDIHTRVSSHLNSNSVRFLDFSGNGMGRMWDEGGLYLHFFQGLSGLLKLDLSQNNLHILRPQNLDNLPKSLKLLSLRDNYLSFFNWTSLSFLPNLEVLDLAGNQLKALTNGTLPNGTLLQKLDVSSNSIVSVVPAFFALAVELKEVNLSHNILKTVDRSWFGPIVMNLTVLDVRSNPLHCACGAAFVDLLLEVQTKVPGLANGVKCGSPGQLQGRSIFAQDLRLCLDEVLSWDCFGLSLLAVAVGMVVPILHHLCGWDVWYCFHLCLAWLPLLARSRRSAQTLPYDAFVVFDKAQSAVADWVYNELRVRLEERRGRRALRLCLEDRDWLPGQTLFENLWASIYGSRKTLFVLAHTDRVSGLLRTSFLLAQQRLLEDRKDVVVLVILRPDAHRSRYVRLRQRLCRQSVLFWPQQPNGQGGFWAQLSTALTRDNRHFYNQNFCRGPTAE

B1: ovalbumin (protein, UniProt P01012 2-386, looked up)
Ovalbumin: GSIGAASMEFCFDVFKELKVHHANENIFYCPIAIMSALAMVYLGAKDSTRTQINKVVRFDKLPGFGDSIEAQCGTSVNVHSSLRDILNQITKPNDVYSFSLASRLYAEERYPILPEYLQCVKELYRGGLEPINFQTAADQARELINSWVESQTNGIIRNVLQPSSVDSQTAMVLVNAIVFKGLWEKAFKDEDTQAMPFRVTEQESKPVQMMYQIGLFRVASMASEKMKILELPFASGTMSMLVLLPDEVSGLEQLESIINFEKLTEWTSSNVMEERKIKVYLPRMKMEEKYNLTSVLMAMGITDVFSSSANLSGISSAESLKISQAVHAAHAEINEAGREVVGSAEAGVDAASVSEEFRADHPFLFCIKHIATNAVLFFGRCVSP
notes: model antigen protein, MW=43 kDa

Legend:
[1] = tested on: SARS-CoV-2 spike protein; settings: in vivo, sc
[2] = target: T1, TLR9; test: In vitro Raw-Blue reporter assay (CpG); format: cell-based; settings: 100,000 Raw-Blue cells, 21 h, CpG-C 3.1-29 μg/mL, absorbance 655 nm
Experimental: In vitro Raw-Blue reporter assay. The Raw-Blue (NF-kB-SEAP) reporter cell line (Invivogen, raw-sp) was used to evaluate the valency effect of TLR9 agonist conjugated to PEG-PLA NPs. The cells were cultured at 37° C. with 5% CO2 in DMEM supplemented with L-glutamine (2 mM), D-glucose (4.5 g/L), 10% HI-FBS, and penicillin (100 U/mL)/streptonmcin (100 μg). Every other passage, zeocin (100 μg/mL) was added to the culture medium. Serial dilutions of soluble CpG-B and CpG-C and of the different CpG-B and CpG-C NPs formulations were added to a 96-well tissue culture treated plate to achieve final concentrations between 30 and 3.1 μg/mL of TLR9 agonist. Non-conjugated PEG-PLA NPs were used as a negative control. […] Manufacturer instructions were followed for SEAP quantification, and absorbance levels detected at 655 nm after 3 h incubation with QUANTI-Blue Solution (Invivogen). […]
In these assays, Raw-Blue cells were incubated for 21 h with either the free form, or the NPs tethered form (10%, 20%, 30%, 50%) of CpG-C at a range of CpG concentrations (3.1-29 μg/mL) in order to generate concentration dependent activation curves (FIG. 38B). […] To ensure a correct and consistent dosing of CpG NPs throughout different experiments, we constructed a standard curve for both classes of CpG-NPs (FIGS. 40A, 40B) by measuring the absorbance of different concentration of CpG at 280 nm. […]

[3] = Cargo and polymer diffusivity (FRAP, Stokes-Einstein, MSDM); format: physicochemical; settings: for Diffusivity in 1:5 gel / Diffusivity in 2:10 gel: FRAP; for Diffusivity in PBS: calculated with Stokes-Einstein from RH
Description: To characterize the dynamics of vaccine exposure expected from the vaccine-loaded gels, we assessed the diffusivities of both vaccine cargo in each of the two gel formulations of interest using fluorescence recovery after photobleaching (FRAP) experiments (FIG. 9F. FIG. 16). The PNP gels are unique compared to traditional covalently cross-linked gels as their bonds are dynamic and continuously rearrange^28. This feature results in self-diffusion of the polymer network over time within the intact hydrogel^40,41. OVA's hydrodynamic radius (RH) in PBS is reported in the literature to be 3.2 nm^42, corresponding to a diffusivity value, D, of 76.6 μm^2/s. Using multi-angle light scattering (MALS) we measured Poly(I:C)'s hydrodynamic radius to be much larger, with an RH of 34.2 nm, corresponding to a D value of 7.2 μm^2/s. This difference in hydrodynamic size results in OVA having more than a 10-fold greater diffusivity than Poly(I:C) in PBS (FIG. 9G) and a 100-fold difference in a typical covalently cross-linked hydrogel (FIG. 17). […] The measured diffusivities for all experiments can be found in Table 6.
FRAP Analysis: Alexa Fluor 647 conjugated OVA (Thermo Fisher Scientific), rhodamine conjugated Poly(I:C) (Invivogen), and rhodamine conjugated HPMC-C12 were used to visualize the diffusion of the cargo and gel. Samples were photobleached with a 50 μm diameter for the region of interest (ROI). Different tests (n=5) were made for 3 different samples from the same batch at different locations of the sample. A spot was bleached with a pixel dwell time of 177.32 μs. 500 post-bleach frames were recorded at 1 frame/s to form the recovery exponential curve. The diffusion coefficient was calculated as^52:
Where the constant γD=τ1/2τD, with τ1/2 being the half-time of the recovery. τD the characteristic diffusion time, both yielded by the ZEN software, and ω the radius of the bleached ROI (25 μm).
The diffusivity of cargo in PBS was calculated using the Stokes-Einstein Law Equation for diffusion^53 where kB is Boltzmann's constant, T is temperature in Kelvin, η is solvent viscosity, and R is solute hydrodynamic radius
The diffusivity of cargo in a model covalent PEG gel was calculated using the Multiscale Diffusion Model (MSDM) assuming 25° C., 5% volume fraction, and 35 nm mesh size^54.
FRAP Analysis: Alexa Fluor 647 conjugated OVA (Thermo Fisher Scientific), rhodamine conjugated Poly(I:C) (Invivogen), and rhodamine conjugated HPMC-C12 were used to visualize the diffusion of the cargo and gel. The samples were placed in a sterile 0.18 mm thick glass bottom dish (Ibidi). An Inverted Zeiss LSM 780 Laser Scanning Confocal Microscope (Germany) using a Plan-Apochromat 20×/0.8 M27 objective lens was used for FRAP measurements. To excite the fluorescent Alexa Fluor 647, a 5 mW 633 nm He—Ne laser was employed at 2%, and the emitted fluorescence was detected by Alexa Fluor 647 specific band pass filter (638-756 nm). To excite the fluorescent rhodamine, a 20 mW 561 nm diode pumped solid state laser was used at 2%, and the emitted fluorescence was detected by rhodamine specific band pass filter (415-638 nm). We used pixel dwell time 2.55 μs which took 390.98 ms to finish every scan. Samples were photobleached with a 405 nm diode laser, plus the 633 nm laser in the case of the Alexa Fluor, and a 514 nm argon laser and the 561 nm laser in the case of the rhodamine. All lasers were set al 100% intensity for the bleaching, with a 20-40 μm diameter for the region of interest (ROI). To avoid any extra noise, the high voltage was limited to be 700 V. Different tests (n=5) were made for 3 different samples from the same batch at different locations of the sample. For each test, 10 control pre-bleach images were captured at 1 frame/s. A spot was bleached with a pixel dwell time of 177.32 μs. 500 post-bleach frames were recorded at 1 frame/s to form the recovery exponential curve. The pixel size was set to be 1.66 μm. The diffusion coefficient was calculated as^62: […]

[4] = reported in the literature; cited from earlier work

Row | Molecule | anti-spike total IgG endpoint titers [1] | log EC50 [2] | Diffusivity in 1:5 gel [3] | Diffusivity in 2:10 gel [3] | Diffusivity in PBS [3] | hydrodynamic radius (RH) ([3]; multi-angle light scattering (MALS)) | hydrodynamic radius (RH) in PBS [4]
1 | CpG-B 1826 [soluble CpG-B] | stronger response than the CpG-B NP | – | – | – | – | – | –
2 | CpG-C 2395 (DNA TCGTCGTTTTCGGCGCGCGCCG; chemistry not given here) [free CpG-C] | – | 1.15 log10(μg/mL) | – | – | – | – | –
3 | Poly(I:C) | – | – | 1.7 ± 0.3 μm^2/s | 2.4 ± 0.1 μm^2/s | 7.2 μm^2/s | 34.2 nm | –
4 | B1 | – | – | 5.76 μm^2/s and 6 ± 1 μm^2/s | 3.2 μm^2/s and 3.2 ± 0.6 μm^2/s | 76.6 μm^2/s | – | 3.2 nm

— patent US20230173059A1, “TOLL-LIKE RECEPTOR (TLR) AGONIST NANOPARTICLES AND USES THEREOF” (The Board of Trustees of the Leland Stanford Junior …, priority 2020, published 2023)
